Assay: The drug is tested on Bifidobacterium longum subsp. Infantis strain: CCUG52486 for biotransformation. The drug concentrations were measured before and after a 12-h incubation by liquid-chromatography-coupled mass spectrometry (LC–MS)
Details: 2 µM

| Compound | Bacterial Biotransformation |
| --- | --- |
| N#Cc1ccc(C(c2ccc(C#N)cc2)n2cncn2)cc1 [LETROZOLE] | Compound NOT metabolized |
| Cc1ccnc2c1NC(=O)c1cccnc1N2C1CC1 [NEVIRAPINE] | Compound NOT metabolized |

Assay: The drug is tested on Bifidobacterium ruminantium strain: fecal isolate for biotransformation. The drug concentrations were measured before and after a 12-h incubation by liquid-chromatography-coupled mass spectrometry (LC–MS)
Details: 2 µM

| Compound | Bacterial Biotransformation |
| --- | --- |
| Nc1nc(N)nc(-c2cc(Cl)ccc2Cl)n1.O=C(O)/C=C\C(=O)O [IRSOGLADINE MALEATE] | Compound metabolized |
| N#Cc1ccc(C(c2ccc(C#N)cc2)n2cncn2)cc1 [LETROZOLE] | Compound NOT metabolized |
| Cc1ccnc2c1NC(=O)c1cccnc1N2C1CC1 [NEVIRAPINE] | Compound NOT metabolized |

Assay: The drug is tested on Collinsella aerofaciens strain: ATCC25986 for biotransformation. The drug concentrations were measured before and after a 12-h incubation by liquid-chromatography-coupled mass spectrometry (LC–MS)
Details: 2 µM

| Compound | Bacterial Biotransformation |
| --- | --- |
| Nc1nc(N)nc(-c2cc(Cl)ccc2Cl)n1.O=C(O)/C=C\C(=O)O [IRSOGLADINE MALEATE] | Compound NOT metabolized |
| CCN(CC)CCOC(=O)C1(C2CCCCC2)CCCCC1 [DICYCLOMINE] | Compound NOT metabolized |
| N#Cc1ccc(C(c2ccc(C#N)cc2)n2cncn2)cc1 [LETROZOLE] | Compound NOT metabolized |
| Cc1ccnc2c1NC(=O)c1cccnc1N2C1CC1 [NEVIRAPINE] | Compound NOT metabolized |

Assay: The drug is tested on Bacteroides dorei strain: DSM17855 for biotransformation. The drug concentrations were measured before and after a 12-h incubation by liquid-chromatography-coupled mass spectrometry (LC–MS)
Details: phocaeicola dorei, 2 µM

| Compound | Bacterial Biotransformation |
| --- | --- |
| Nc1nc(N)nc(-c2cc(Cl)ccc2Cl)n1.O=C(O)/C=C\C(=O)O [IRSOGLADINE MALEATE] | Compound metabolized |
| CCN(CC)CCOC(=O)C1(C2CCCCC2)CCCCC1 [DICYCLOMINE] | Compound metabolized |
| N#Cc1ccc(C(c2ccc(C#N)cc2)n2cncn2)cc1 [LETROZOLE] | Compound NOT metabolized |
| Cc1ccnc2c1NC(=O)c1cccnc1N2C1CC1 [NEVIRAPINE] | Compound NOT metabolized |

Assay: The drug is tested on Bacteroides finegoldii strain: DSM17565 for biotransformation. The drug concentrations were measured before and after a 12-h incubation by liquid-chromatography-coupled mass spectrometry (LC–MS)
Details: 2 µM

| Compound | Bacterial Biotransformation |
| --- | --- |
| Nc1nc(N)nc(-c2cc(Cl)ccc2Cl)n1.O=C(O)/C=C\C(=O)O [IRSOGLADINE MALEATE] | Compound NOT metabolized |
| N#Cc1ccc(C(c2ccc(C#N)cc2)n2cncn2)cc1 [LETROZOLE] | Compound NOT metabolized |
| Cc1ccnc2c1NC(=O)c1cccnc1N2C1CC1 [NEVIRAPINE] | Compound NOT metabolized |

Assay: The drug is tested on Bacteroides fragilis strain: HMW615 for biotransformation. The drug concentrations were measured before and after a 12-h incubation by liquid-chromatography-coupled mass spectrometry (LC–MS)
Details: 2 µM

| Compound | Bacterial Biotransformation |
| --- | --- |
| Nc1nc(N)nc(-c2cc(Cl)ccc2Cl)n1.O=C(O)/C=C\C(=O)O [IRSOGLADINE MALEATE] | Compound NOT metabolized |
| N#Cc1ccc(C(c2ccc(C#N)cc2)n2cncn2)cc1 [LETROZOLE] | Compound NOT metabolized |
| Cc1ccnc2c1NC(=O)c1cccnc1N2C1CC1 [NEVIRAPINE] | Compound NOT metabolized |

Assay: The drug is tested on Bacteroides sp. WH2 strain: WH2 for biotransformation. The drug concentrations were measured before and after a 12-h incubation by liquid-chromatography-coupled mass spectrometry (LC–MS)
Details: bacteroides sp. wh2, 12 h, 2 µM

| Compound | Bacterial Biotransformation |
| --- | --- |
| Nc1nc(N)nc(-c2cc(Cl)ccc2Cl)n1.O=C(O)/C=C\C(=O)O [IRSOGLADINE MALEATE] | Compound NOT metabolized |
| CCN(CC)CCOC(=O)C1(C2CCCCC2)CCCCC1 [DICYCLOMINE] | Compound NOT metabolized |
| N#Cc1ccc(C(c2ccc(C#N)cc2)n2cncn2)cc1 [LETROZOLE] | Compound NOT metabolized |
| Cc1ccnc2c1NC(=O)c1cccnc1N2C1CC1 [NEVIRAPINE] | Compound NOT metabolized |

Assay: The drug is tested on Bacteroides xylanisolvens strain: DSM18836 for biotransformation. The drug concentrations were measured before and after a 12-h incubation by liquid-chromatography-coupled mass spectrometry (LC–MS)
Details: 2 µM

| Compound | Bacterial Biotransformation |
| --- | --- |
| Nc1nc(N)nc(-c2cc(Cl)ccc2Cl)n1.O=C(O)/C=C\C(=O)O [IRSOGLADINE MALEATE] | Compound NOT metabolized |
| CCN(CC)CCOC(=O)C1(C2CCCCC2)CCCCC1 [DICYCLOMINE] | Compound metabolized |
| N#Cc1ccc(C(c2ccc(C#N)cc2)n2cncn2)cc1 [LETROZOLE] | Compound NOT metabolized |
| Cc1ccnc2c1NC(=O)c1cccnc1N2C1CC1 [NEVIRAPINE] | Compound NOT metabolized |

Assay: The drug is tested on Anaerotruncus colihominis strain: DSM17241 for biotransformation. The drug concentrations were measured before and after a 12-h incubation by liquid-chromatography-coupled mass spectrometry (LC–MS)
Details: 2 µM

| Compound | Bacterial Biotransformation |
| --- | --- |
| Nc1nc(N)nc(-c2cc(Cl)ccc2Cl)n1.O=C(O)/C=C\C(=O)O [IRSOGLADINE MALEATE] | Compound NOT metabolized |
| CCN(CC)CCOC(=O)C1(C2CCCCC2)CCCCC1 [DICYCLOMINE] | Compound NOT metabolized |
| N#Cc1ccc(C(c2ccc(C#N)cc2)n2cncn2)cc1 [LETROZOLE] | Compound NOT metabolized |
| Cc1ccnc2c1NC(=O)c1cccnc1N2C1CC1 [NEVIRAPINE] | Compound NOT metabolized |

Assay: The drug is tested on Clostridium ramosum strain: DSM1402 for biotransformation. The drug concentrations were measured before and after a 12-h incubation by liquid-chromatography-coupled mass spectrometry (LC–MS)
Details: thomasclavelia ramosa, 2 µM

| Compound | Bacterial Biotransformation |
| --- | --- |
| CCN(CC)CCOC(=O)C1(C2CCCCC2)CCCCC1 [DICYCLOMINE] | Compound NOT metabolized |

Assay: The drug is tested on Eubacterium hallii strain: DSM3353 for biotransformation. The drug concentrations were measured before and after a 12-h incubation by liquid-chromatography-coupled mass spectrometry (LC–MS)
Details: anaerobutyricum hallii, 2 µM

| Compound | Bacterial Biotransformation |
| --- | --- |
| Nc1nc(N)nc(-c2cc(Cl)ccc2Cl)n1.O=C(O)/C=C\C(=O)O [IRSOGLADINE MALEATE] | Compound NOT metabolized |
| CCN(CC)CCOC(=O)C1(C2CCCCC2)CCCCC1 [DICYCLOMINE] | Compound NOT metabolized |
| N#Cc1ccc(C(c2ccc(C#N)cc2)n2cncn2)cc1 [LETROZOLE] | Compound NOT metabolized |
| Cc1ccnc2c1NC(=O)c1cccnc1N2C1CC1 [NEVIRAPINE] | Compound NOT metabolized |

Assay: The drug is tested on Eubacterium ventriosum strain: ATCC27560 for biotransformation. The drug concentrations were measured before and after a 12-h incubation by liquid-chromatography-coupled mass spectrometry (LC–MS)
Format: ADME
Parameters: dose 2 uM, timepoint 0 vs 12 hours
Details: 2 µM

| Compound | Bacterial Biotransformation |
| --- | --- |
| Nc1nc(N)nc(-c2cc(Cl)ccc2Cl)n1.O=C(O)/C=C\C(=O)O [IRSOGLADINE MALEATE] | Compound NOT metabolized |
| N#Cc1ccc(C(c2ccc(C#N)cc2)n2cncn2)cc1 [LETROZOLE] | Compound NOT metabolized |
| Cc1ccnc2c1NC(=O)c1cccnc1N2C1CC1 [NEVIRAPINE] | Compound NOT metabolized |

Assay: The drug is tested on Ruminococcus gnavus strain: ATCC29149 for biotransformation. The drug concentrations were measured before and after a 12-h incubation by liquid-chromatography-coupled mass spectrometry (LC–MS)
Details: mediterraneibacter gnavus, 2 µM

| Compound | Bacterial Biotransformation |
| --- | --- |
| Nc1nc(N)nc(-c2cc(Cl)ccc2Cl)n1.O=C(O)/C=C\C(=O)O [IRSOGLADINE MALEATE] | Compound NOT metabolized |
| CCN(CC)CCOC(=O)C1(C2CCCCC2)CCCCC1 [DICYCLOMINE] | Compound NOT metabolized |
| N#Cc1ccc(C(c2ccc(C#N)cc2)n2cncn2)cc1 [LETROZOLE] | Compound NOT metabolized |
| Cc1ccnc2c1NC(=O)c1cccnc1N2C1CC1 [NEVIRAPINE] | Compound NOT metabolized |

Assay: The drug is tested on Providencia stuartii strain: ATCC25827 for biotransformation. The drug concentrations were measured before and after a 12-h incubation by liquid-chromatography-coupled mass spectrometry (LC–MS)
Details: 2 µM

| Compound | Bacterial Biotransformation |
| --- | --- |
| Nc1nc(N)nc(-c2cc(Cl)ccc2Cl)n1.O=C(O)/C=C\C(=O)O [IRSOGLADINE MALEATE] | Compound NOT metabolized |
| N#Cc1ccc(C(c2ccc(C#N)cc2)n2cncn2)cc1 [LETROZOLE] | Compound NOT metabolized |
| Cc1ccnc2c1NC(=O)c1cccnc1N2C1CC1 [NEVIRAPINE] | Compound NOT metabolized |

Details: bacteroides fragilis, 12 h, 2 µM
Description: The drug is tested on Bacteroides fragilis strain: NCTC 9343 for biotransformation. The drug concentrations were measured before and after a 12-h incubation by liquid-chromatography-coupled mass spectrometry (LC–MS)

| Compound | Bacterial Biotransformation |
| --- | --- |
| Nc1nc(N)nc(-c2cc(Cl)ccc2Cl)n1.O=C(O)/C=C\C(=O)O [IRSOGLADINE MALEATE] | Compound NOT metabolized |
| CCN(CC)CCOC(=O)C1(C2CCCCC2)CCCCC1 [DICYCLOMINE] | Compound NOT metabolized |
| N#Cc1ccc(C(c2ccc(C#N)cc2)n2cncn2)cc1 [LETROZOLE] | Compound NOT metabolized |
| Cc1ccnc2c1NC(=O)c1cccnc1N2C1CC1 [NEVIRAPINE] | Compound NOT metabolized |

Details: bacteroides intestinalis, 12 h, 2 µM
Description: The drug is tested on Bacteroides intestinalis strain: DSM17393 for biotransformation. The drug concentrations were measured before and after a 12-h incubation by liquid-chromatography-coupled mass spectrometry (LC–MS)

| Compound | Bacterial Biotransformation |
| --- | --- |
| Nc1nc(N)nc(-c2cc(Cl)ccc2Cl)n1.O=C(O)/C=C\C(=O)O [IRSOGLADINE MALEATE] | Compound NOT metabolized |
| N#Cc1ccc(C(c2ccc(C#N)cc2)n2cncn2)cc1 [LETROZOLE] | Compound NOT metabolized |
| Cc1ccnc2c1NC(=O)c1cccnc1N2C1CC1 [NEVIRAPINE] | Compound NOT metabolized |

Details: bacteroides thetaiotaomicron, 12 h, 2 µM
Description: The drug is tested on Bacteroides thetaiotaomicron strain: 3731 for biotransformation. The drug concentrations were measured before and after a 12-h incubation by liquid-chromatography-coupled mass spectrometry (LC–MS)

| Compound | Bacterial Biotransformation |
| --- | --- |
| Nc1nc(N)nc(-c2cc(Cl)ccc2Cl)n1.O=C(O)/C=C\C(=O)O [IRSOGLADINE MALEATE] | Compound NOT metabolized |
| CCN(CC)CCOC(=O)C1(C2CCCCC2)CCCCC1 [DICYCLOMINE] | Compound NOT metabolized |
| N#Cc1ccc(C(c2ccc(C#N)cc2)n2cncn2)cc1 [LETROZOLE] | Compound NOT metabolized |
| Cc1ccnc2c1NC(=O)c1cccnc1N2C1CC1 [NEVIRAPINE] | Compound NOT metabolized |

Details: limosilactobacillus reuteri cf48-3a, 12 h, 2 µM
Description: The drug is tested on Lactobacillus reuteri CF48-3A strain: BEI HM-102 for biotransformation. The drug concentrations were measured before and after a 12-h incubation by liquid-chromatography-coupled mass spectrometry (LC–MS)

| Compound | Bacterial Biotransformation |
| --- | --- |
| N#Cc1ccc(C(c2ccc(C#N)cc2)n2cncn2)cc1 [LETROZOLE] | Compound NOT metabolized |
| Cc1ccnc2c1NC(=O)c1cccnc1N2C1CC1 [NEVIRAPINE] | Compound NOT metabolized |

Details: roseburia intestinalis, 12 h, 2 µM
Description: The drug is tested on Roseburia intestinalis strain: L1-82 for biotransformation. The drug concentrations were measured before and after a 12-h incubation by liquid-chromatography-coupled mass spectrometry (LC–MS)

| Compound | Bacterial Biotransformation |
| --- | --- |
| Nc1nc(N)nc(-c2cc(Cl)ccc2Cl)n1.O=C(O)/C=C\C(=O)O [IRSOGLADINE MALEATE] | Compound NOT metabolized |
| N#Cc1ccc(C(c2ccc(C#N)cc2)n2cncn2)cc1 [LETROZOLE] | Compound NOT metabolized |
| Cc1ccnc2c1NC(=O)c1cccnc1N2C1CC1 [NEVIRAPINE] | Compound NOT metabolized |

Details: akkermansia muciniphila, 12 h, 2 µM
Description: The drug is tested on Akkermansia muciniphila strain: ATCC BAA-835 for biotransformation. The drug concentrations were measured before and after a 12-h incubation by liquid-chromatography-coupled mass spectrometry (LC–MS)

| Compound | Bacterial Biotransformation |
| --- | --- |
| Nc1nc(N)nc(-c2cc(Cl)ccc2Cl)n1.O=C(O)/C=C\C(=O)O [IRSOGLADINE MALEATE] | Compound NOT metabolized |
| N#Cc1ccc(C(c2ccc(C#N)cc2)n2cncn2)cc1 [LETROZOLE] | Compound NOT metabolized |
| Cc1ccnc2c1NC(=O)c1cccnc1N2C1CC1 [NEVIRAPINE] | Compound NOT metabolized |

From ChEMBL document CHEMBL5303573, “Mapping human microbiome drug metabolism by gut bacteria and their genes” (Nature, 2019)
